The values below come from patent US11939314B2, “Quinolin-2-one derivatives” (MERCK PATENT GMBH, priority 2016, dated 2024).

Usually IC50 stands for the concentration needed to halve the response being measured.

In one assay the target is T1, c-Kit(V654A) (Homo sapiens, UniProt P10721, V654A).
T1 construct: amino acids 544-end containing the V654A mutation; GST (N)
As to the kind of experiment: c-Kit(V654A) assay. Format: biochemical. As to conditions: recombinant human c-Kit aa 544-end, 200 μM ATP, 1.4E-06 means 1.4×10^−6, read-out: Inhibition (IC50) of c-KIT (V654A). The method in brief: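 Radiometric filter-binding read-out: substrate 33P incorporation counted by scintillation after P30 filtermat washes in 75 mM phosphoric acid and methanol. Enzyme: N-GST recombinant human c-Kit aa 544-end carrying V654A.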

For another assay, the target named is T2, PDGFRalpha(V561D) (Homo sapiens, UniProt P16234, V561D).
T2 construct: recombinant human PDGFRalpha, amino acids 550end containing the V561 D mutation; 6His (N)
The experiment in a line: PDGFRalpha(V561D) assay. It counts as biochemical. As to conditions: recombinant human PDGFRalpha aa 550-end, 200 μM ATP, 1.4E-06 means 1.4×10^−6, read-out: Inhibition (IC50) of PDGFRα (V561D). The method in brief: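 Radiometric filter-binding assay: substrate phosphorylation by recombinant N-His-tagged human PDGFRα 550-end V561D was quenched with 3% phosphoric acid after 40 min at room temperature, then counted.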

T1 sequence (P10721 544-976 V654A): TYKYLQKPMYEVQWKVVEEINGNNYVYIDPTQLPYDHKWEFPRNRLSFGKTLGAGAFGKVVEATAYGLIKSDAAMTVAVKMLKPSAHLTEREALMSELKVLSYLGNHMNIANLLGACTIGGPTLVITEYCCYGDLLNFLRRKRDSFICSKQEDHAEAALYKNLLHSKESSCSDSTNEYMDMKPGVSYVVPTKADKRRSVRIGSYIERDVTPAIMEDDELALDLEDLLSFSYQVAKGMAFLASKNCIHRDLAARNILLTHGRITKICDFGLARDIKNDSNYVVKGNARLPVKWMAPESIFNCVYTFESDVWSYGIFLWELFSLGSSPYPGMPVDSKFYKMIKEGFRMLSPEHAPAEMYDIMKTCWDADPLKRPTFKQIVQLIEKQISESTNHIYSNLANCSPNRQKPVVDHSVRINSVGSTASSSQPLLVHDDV
T2 sequence (P16234 550-1089 V561D): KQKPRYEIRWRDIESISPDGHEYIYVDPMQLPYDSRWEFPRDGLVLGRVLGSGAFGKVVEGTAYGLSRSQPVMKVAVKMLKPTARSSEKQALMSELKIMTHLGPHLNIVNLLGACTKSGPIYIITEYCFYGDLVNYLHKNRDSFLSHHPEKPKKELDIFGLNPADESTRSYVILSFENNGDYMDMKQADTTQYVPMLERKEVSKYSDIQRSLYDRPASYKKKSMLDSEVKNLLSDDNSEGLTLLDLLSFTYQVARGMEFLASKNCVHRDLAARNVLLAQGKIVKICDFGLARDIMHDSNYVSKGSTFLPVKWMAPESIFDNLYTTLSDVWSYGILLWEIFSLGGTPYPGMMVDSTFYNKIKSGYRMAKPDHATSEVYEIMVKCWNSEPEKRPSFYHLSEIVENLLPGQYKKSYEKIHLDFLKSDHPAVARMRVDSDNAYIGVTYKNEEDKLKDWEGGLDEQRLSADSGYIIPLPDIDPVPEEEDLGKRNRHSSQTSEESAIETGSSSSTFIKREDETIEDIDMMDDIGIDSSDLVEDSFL

Take `CN1CCN(C(=O)c2ccc(-n3cc(-c4cc5ccc(Cl)cc5[nH]c4=O)nn3)cc2)CC1` [A154, 7-chloro-3-{1-[4-(4-methyl-piperazine-1-carbonyl)-phenyl]-1H-[1,2,3]triazol-4-yl}-1H-quinolin-2-one]: the results for the IC50 on c-Kit(V654A) and on PDGFRalpha(V561D) were 11 nM and 3 nM, respectively.
For `O=C(c1ccc(-n2cc(-c3cc4cc(F)c(F)cc4[nH]c3=O)nn2)cc1)C1CCNCC1` [A136, 6,7-difluoro-3-{1-[4-(piperidine-4-carbonyl)-phenyl]-1H-[1,2,3]triazol-4-yl}-1H-quinolin-2-one], in that order: 15 nM and 18 nM.
Taken in the same sequence, the figures for `CO[C@H]1CCN(C(=O)c2ccc(-n3cc(-c4cc5cc(F)c(F)cc5[nH]c4=O)nn3)cc2)C1` [A114, 6,7-difluoro-3-{1-[4-((S)-3-methoxy-pyrrolidine-1-carbonyl)-phenyl]-1H-[1,2,3]triazol-4-yl}-1H-quinolin-2-one] were 20 nM and 140 nM.
Taken in the same sequence, the figures for `COC[C@H]1CCN(C(=O)c2ccc(-n3cc(-c4cc5cc(F)c(F)cc5[nH]c4=O)nn3)cc2)C1` [A201, 6,7-difluoro-3-{1-[4-((S)-3-methoxymethyl-pyrrolidine-1-carbonyl)-phenyl]-1H-[1,2,3]triazol-4-yl}-1H-quinolin-2-one] were 97 nM and 92 nM.
Regarding `Cc1ccc2cc(-c3cn(-c4ccc(C(=O)N5CCOCC5)cc4)nn3)c(=O)[nH]c2c1` [A84, 7-methyl-3-{1-[4-(morpholine-4-carbonyl)-phenyl]-1H-[1,2,3]triazol-4-yl}-1H-quinolin-2-one], the values for the IC50 at c-Kit(V654A) and on PDGFRalpha(V561D) were 48 nM and 5 nM, respectively.
`Cc1cc(C(=O)N2CCOCC2)ccc1-n1cc(-c2cc3ccccc3[nH]c2=O)nn1` [A35, 3-{1-[2-methyl-4-(morpholine-4-carbonyl)-phenyl]-1H-[1,2,3]triazol-4-yl}-1H-quinolin-2-one]: the values for the IC50 at c-Kit(V654A) and on PDGFRalpha(V561D) were 650 nM and 49 nM, respectively.
For the compound `O=C(c1ccc(-n2cc(-c3cc4cc(F)c(F)cc4[nH]c3=O)nn2)cc1)N1CCC(N2CCCC2)C1` (stereo not drawn) [A104, 3-{1-[4-([1,3′]bipyrrolidinyl-1′-carbonyl)-phenyl]-1H-[1,2,3]triazol-4-yl}-6,7-difluoro-1H-quinolin-2-one], the results for the IC50 at c-Kit(V654A) and at PDGFRalpha(V561D) were 24 nM and 150 nM, respectively.
Consider `CO[C@@H]1CCN(C(=O)c2ccc(-n3cc(-c4cc5cc(F)ccc5[nH]c4=O)nn3)cc2)C1` [A111, 6-fluoro-3-{1-[4-((R)-3-methoxy-pyrrolidine-1-carbonyl)-phenyl]-1H-[1,2,3]triazol-4-yl}-1H-quinolin-2-one], for which the IC50 at c-Kit(V654A) is 7.7 nM; on PDGFRalpha(V561D), 18 nM.
In the case of `CN1CCN(C(=O)COc2ccc(-n3cc(-c4cc5cc(F)c(F)cc5[nH]c4=O)nn3)cc2)CC1` [A167, 6,7-difluoro-3-(1-{4-[2-(4-methyl-piperazin-1-yl)-2-oxo-ethoxy]-phenyl}-1H-[1,2,3]triazol-4-yl)-1H-quinolin-2-one], the IC50 at c-Kit(V654A) was 18 nM; on PDGFRalpha(V561D), 21 nM.
For the compound `O=C(c1ccc(-n2cc(-c3cc4ncccc4[nH]c3=O)nn2)cc1)N1CCOCC1` [A85, 3-{1-[4-(morpholine-4-carbonyl)-phenyl]-1H-[1,2,3]triazol-4-yl}-1H-[1,5]naphthyridin-2-one], the IC50 was determined as 1300 nM on c-Kit(V654A) and 1700 nM at PDGFRalpha(V561D).
For `O=c1[nH]c2ncccc2cc1-c1cnn(-c2ccccc2)c1` [A43, 3-(1-phenyl-1H-pyrazol-4-yl)-1H-[1,8]naphthyridin-2-one], in that order: 140 nM and 170 nM.
For `COCCN(CCOC)C(=O)c1ccc(-n2cc(-c3cc4cc(F)ccc4[nH]c3=O)nn2)cc1` [A238, 4-[4-(6-fluoro-2-oxo-1,2-dihydro-quinolin-3-yl)-[1,2,3]triazol-1-yl]-N,N-bis-(2-methoxy-ethyl)-benzamide], the results for the IC50 on c-Kit(V654A) and on PDGFRalpha(V561D) were 79 nM and 620 nM, respectively.
